# Laboratory results as given in US8993585B2, “Cyclic amine substituted pyrimidinediamines as PKC inhibitors” (Rigel Pharmaceuticals, Inc., priority 2007, dated 2015).
# Tests used:
# PKC theta = target: T1, PKC theta (Homo sapiens, UniProt Q04759); test: PKC assay, fluorescence polarization (Example 2), PKC theta; format: biochemical; settings: 5 μM ATP
# T1 construct: purchased Upstate Biotechnologies, Temecula, CA 14-444
# Procedure, shortened: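 Phosphorylated peptide product detected by fluorescence polarization, with EDTA quench plus peptide tracer and antibody. Reaction in 20 mM HEPES pH 7.4, 5 mM MgCl2, 0.2 mM CaCl2, 1 mM DTT, 0.02% Brij-35, phosphatidylserine and dioleoyl-sn-glycerol, with 5 μM ATP and 5 μM peptide. Started with enzyme, 20 min at room temperature.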
# PKC epsilon = target: T2, PKC epsilon (Homo sapiens, UniProt Q02156); test: PKC assay, fluorescence polarization (Example 2), PKC epsilon; format: biochemical; settings: 5 μM ATP
# T2 construct: purchased Upstate Biotechnologies, Temecula, CA 14-518
# T2 sequence (Q02156 1-737): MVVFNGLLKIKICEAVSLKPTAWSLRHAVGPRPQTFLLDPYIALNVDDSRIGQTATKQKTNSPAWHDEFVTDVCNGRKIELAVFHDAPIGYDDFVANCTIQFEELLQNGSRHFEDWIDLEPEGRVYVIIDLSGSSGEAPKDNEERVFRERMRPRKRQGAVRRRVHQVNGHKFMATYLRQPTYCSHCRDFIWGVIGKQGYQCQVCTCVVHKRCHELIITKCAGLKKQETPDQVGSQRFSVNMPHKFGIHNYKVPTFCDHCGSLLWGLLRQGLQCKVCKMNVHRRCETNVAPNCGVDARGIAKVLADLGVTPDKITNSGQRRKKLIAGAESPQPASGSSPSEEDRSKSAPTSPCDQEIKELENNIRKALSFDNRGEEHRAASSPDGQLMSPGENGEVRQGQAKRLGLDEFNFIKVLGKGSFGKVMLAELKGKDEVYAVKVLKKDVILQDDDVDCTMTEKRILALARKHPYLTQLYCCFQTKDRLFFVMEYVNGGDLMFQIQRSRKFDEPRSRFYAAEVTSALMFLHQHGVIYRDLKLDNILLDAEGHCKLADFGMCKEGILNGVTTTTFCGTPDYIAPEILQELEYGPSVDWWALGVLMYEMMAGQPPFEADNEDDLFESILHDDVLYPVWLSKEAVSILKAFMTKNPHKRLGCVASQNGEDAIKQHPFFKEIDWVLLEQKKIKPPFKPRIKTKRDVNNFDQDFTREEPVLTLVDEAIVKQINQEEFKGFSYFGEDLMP
# Method: The inhibition of PKC activity was measured by monitoring the production of phosphorylated peptide by fluorescence polarization at different concentrations of the inhibitor. Reactions were carried out in 96-well plate format with a total volume of 20 μL containing 20 mM HEPES, pH 7.4, 5 mM MgCl2, 0.2 mM CaCl2, 1 mM DTT, 0.02% Brij-35, 0.1 mg/mL phosphatidylserine, 0.02 mg/mL dioleoyl-sn-glycerol and 5 μM each of ATP and the peptide substrate. Compounds were first diluted serially in DMSO and then transferred to a solution containing the above concentrations of HEPES, MgCl2, CaCl2, DTT, and Brij-35 to yield 5× compound solutions in 2% DMSO, which was then added to the reaction solution. Reactions were initiated by the addition of PKC at a typical concentration as described in Table VI, and then allowed to incubate at room temperature for 20 min. At the end of this time, a combination of quench (EDTA) and detection (peptide tracer and antibody) reagents was added using the protocol of Invitrogen P2748.
# Human primary T cells = test: IL-2 ELISA, Human Primary T Cell, Anti-CD3+CD28+ (Example 3); format: cell-based; settings: Homo sapiens, T-cell, 24 h, anti-CD3+CD28 stimulation
# Procedure, shortened: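 IL-2 was read by ELISA after stimulation on wells pre-coated with 1 ug/ml αCD3 and 5 μg/ml αCD28. Before this, 100,000 human primary T cells per well spent 1 h at 37 °C with test compound in Yssel's medium. The counter-screen replaced antibody stimulation with PMA (0.5 ng/ml final) and ionomycin (0.1 uM final).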
# T1 sequence (Q04759 whole entry): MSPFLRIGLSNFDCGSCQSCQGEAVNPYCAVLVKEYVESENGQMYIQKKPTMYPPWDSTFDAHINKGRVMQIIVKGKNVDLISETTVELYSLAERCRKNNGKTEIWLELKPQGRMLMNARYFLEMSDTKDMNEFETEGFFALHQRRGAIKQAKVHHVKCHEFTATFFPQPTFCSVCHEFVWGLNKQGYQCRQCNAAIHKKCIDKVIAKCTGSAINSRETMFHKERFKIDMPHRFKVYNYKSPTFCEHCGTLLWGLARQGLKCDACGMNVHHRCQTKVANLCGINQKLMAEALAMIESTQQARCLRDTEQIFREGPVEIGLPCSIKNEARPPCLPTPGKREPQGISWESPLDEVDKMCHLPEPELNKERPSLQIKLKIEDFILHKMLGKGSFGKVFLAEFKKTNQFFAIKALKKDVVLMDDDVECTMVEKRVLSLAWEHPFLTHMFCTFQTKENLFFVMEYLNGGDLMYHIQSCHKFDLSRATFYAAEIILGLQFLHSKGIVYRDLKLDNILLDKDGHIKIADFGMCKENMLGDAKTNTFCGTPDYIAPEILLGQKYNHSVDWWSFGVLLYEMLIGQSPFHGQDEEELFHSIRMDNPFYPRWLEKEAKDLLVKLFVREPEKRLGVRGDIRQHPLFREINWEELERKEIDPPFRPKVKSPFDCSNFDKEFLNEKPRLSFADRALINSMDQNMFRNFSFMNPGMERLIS
SMILES,IC50 (PKC theta),IC50 (PKC epsilon),IC50 (Human primary T cells)
CCN1C(=O)C(F)(F)Oc2cc(Nc3ncc(F)c(NC4CC(C)(C)N(C)C(C)(C)C4)n3)cnc21 [II-27],0.00388 µM,0.0658 µM,0.21 µM
CSc1nnnn1-c1cccc(Nc2ncc(F)c(NC3CC(C)(C)NC(C)(C)C3)n2)c1 [Compound I-416],0.0033 µM,0.013 µM,0.08 µM
COc1cc(Nc2ncc(C(F)(F)F)c(NC3CC(C)(C)N(C)C(C)(C)C3)n2)cc(OC)c1 [Compound I-363],0.00417 µM,0.0548 µM,0.233 µM
COc1cc(Nc2ncc(F)c(NC3CC(C)(C)N(C)C(C)(C)C3)n2)cc(OC)c1 [Compound I-129],0.00419 µM,0.0268 µM,0.214 µM
Cc1cc(Nc2ncc(F)c(NC3CC(C)(C)N(C)C(C)(C)C3)n2)ccc1-c1cccnc1 [Compound I-121],0.0237 µM,0.0158 µM,0.268 µM
CN1C(C)(C)CC(Nc2nc(Nc3ccc(F)c(C#N)c3)ncc2Cl)CC1(C)C [Compound I-166],0.00426 µM,0.198 µM,0.281 µM
CN1C(C)(C)CC(Nc2nc(Nc3ccc4c(c3)oc(=O)n4CC3CC3)ncc2F)CC1(C)C [II-163],0.0061 µM,0.14 µM,0.28 µM
CCCN1CCN(c2ccc(Nc3ncc(F)c(NC4CC(C)(C)N(C)C(C)(C)C4)n3)cc2C(F)(F)F)CC1 [Compound I-247],0.0199 µM,0.0669 µM,0.131 µM
CN1C(C)(C)CC(Nc2nc(Nc3cccc(Br)c3)ncc2F)CC1(C)C [Compound I-104],0.0158 µM,0.0628 µM,0.0798 µM
CN1C(C)(C)CC(Nc2nc(Nc3ccc(-c4ccncc4)c(C(F)(F)F)c3)ncc2F)CC1(C)C [Compound I-96],0.00456 µM,0.0817 µM,0.177 µM
CN1C(C)(C)CC(Nc2nc(Nc3ccc(-c4cccnc4)c(C(F)(F)F)c3)ncc2F)CC1(C)C [Compound I-112],0.00891 µM,0.0255 µM,0.0733 µM
CN1C(C)(C)CC(Nc2nc(Nc3cc(Cl)cc(Cl)c3)ncc2F)CC1(C)C [Compound I-103],0.0504 µM,0.413 µM,0.129 µM
Cc1ccc(Nc2ncc(F)c(NC3CC(C)(C)N(C)C(C)(C)C3)n2)cc1-c1ccoc1 [Compound I-188],0.00474 µM,0.0367 µM,0.178 µM

# Stronger by IC50 (PKC theta), values ahead:
IC50 (PKC theta),IC50 (PKC epsilon),IC50 (Human primary T cells),SMILES
0.0012 µM,0.2 µM,0.35 µM,CC1(C)CC(Nc2nc(Nc3cc(OCC(F)(F)F)cc(OCC(F)(F)F)c3)ncc2F)CC(C)(C)N1 [Compound I-375]
0.00127 µM,0.0168 µM,0.156 µM,CN1C(C)(C)CC(Nc2nc(Nc3ccc(N4CCOCC4)c(OC(F)F)c3)ncc2F)CC1(C)C [Compound I-235]
0.00081 µM,0.16 µM,0.243 µM,CN1CCN(c2ccc(Nc3ncc(C(F)(F)F)c(NC4CC(C)(C)N(C)C(C)(C)C4)n3)cc2C#N)CC1 [Compound I-178]
0.00272 µM,0.0327 µM,0.12 µM,Cc1ccc(Nc2ncc(Cl)c(NC3CC(C)(C)N(C)C(C)(C)C3)n2)cc1C#N [Compound I-168]
0.0011 µM,0.157 µM,0.18 µM,COc1ccc(Nc2ncc(F)c(NC3CC(C)(C)NC(C)(C)C3)n2)cc1OC(F)F [Compound I-444]
0.0013 µM,0.008 µM,0.07 µM,Cc1ccc(Nc2ncc(F)c(NC3CC(C)(C)NC(C)(C)C3)n2)cc1-n1cnnn1 [Compound I-455]
